Reference: patent publication US20240093191A1, “COMPOSITIONS AND METHODS FOR TREATING DISEASE ASSOCIATED WITH DUX4 OVEREXPRESSION” (RESEARCH INSTITUTE AT NATIONWIDE CHILDREN'S HOSPITAL, priority 2021, published 2024)

How the values were obtained:
mir-675-5p [1] = assay: ddPCR of mir-675-5p in drug-treated DUX4-transfected HEK293 cells; type: cell-based, human; conditions: vs ethanol vehicle
Protocol: (§1) Digital Droplet PCR (ddPCR). For mir-675 and mi405 constructs, RNA extraction was carried out as described for QPCR above. For cDNA synthesis, the TaqMan advanced cDNA synthesis kit (Thermo Fisher) was used and cDNA was prepared by following manufacturer's instructions. ddPCR was carried out using 1× ddPCR Supermix for probes (No dUTP) (Bio-Rad), 1× commercially available mir-675 advanced TaqMan probe, or a custom made mi405 advanced TaqMan probe (ThermoFisher) and 50 ng of cDNA. For DUX4 cDNA synthesis, the High-Capacity cDNA Reverse Transcription Kit (Applied Biosystems) was used according to manufacturer's instructions. Within the same cDNA reaction, 1×RT random hexamer primers and 25 pmoles of the Oligo(dT) primer were used to generate cDNA for DUX4 and DUX4-responsive biomarkers and for mouse Rpl13A, used as a reference gene. To quantify DUX4, the ddPCR reaction mixture (20 μL) contained 1× ddPCR Evagreen Supermix (Bio-Rad), 1 μM of forward and reverse DUX4 primers (Sharma et al., J Genet Syndr Gene Ther 2016 August; 7(4):303. doi: 10.4172/2157-7412.1000303. Epub 2016 Aug. 8), and 50 ng of cDNA. To quantify Rpl13A and DUX4-responsive biomarkers (Trim36 and Wfdc3), the 1× ddPCR Supermix for probes (No dUTP) and TaqMan specific probes were used for each of the genes. Droplets were generated using the Automatic Droplet generator QX200 AutoDG (Bio-Rad), the reactions were amplified in a C1000 Touch™ Thermal Cycler with 96-Deep Well Reaction Module (Bio-Rad). Cycling conditions were set up following the QX200 ddPCR Evagreen Supermix protocol. All assays are compatible with an annealing temperature of 58° C. Droplets were then read using the QX200 droplet reader (Bio-Rad). Finally, data were analyzed using the QuantaSoft analysis software (Bio-Rad). For quantification, each reaction of 20 μL was estimated to give at least 10,000 acceptable droplets.
(§2) Three small molecule candidates (β-estradiol, a combination of β-estradiol+medroxyprogesterone acetate (MPA), and melatonin) were tested for their ability to upregulate mir-675-5p in HEK293 cells and in human myotubes. HEK293 cells normally express minimal amounts of mir-675. […] 24 hours after treatment, mir-675-5p expression was measured by Droplet Digital PCR (ddPCR).
In FIG. 28, β-estradiol, medroxyprogesterone acetate (MPA) and melatonin increased mir-675 expression and reduced the expression of DUX4 and DUX4-induced biomarker TRIM43 in HEK293 cells. […] The effects of these drugs were evaluated by comparison to ethanol (vehicle)-treated cells. […] The quantification (percent change) of gene expression from HEK293 cells treated with β-estradiol, β-estradiol+MPA, or melatonin was measured using droplet digital PCR (ddPCR) and is reported in Table 3 set out below. […]

DUX4 [2] = assay: ddPCR of transfected DUX4 in drug-treated HEK293 cells; type: cell-based, human; conditions: vs ethanol vehicle
Protocol: as §1, with “Cycling conditions were set up following the QX200 ddPCR Evagreen Supermix protocol. All assays are compatible with an annealing temperature of 58° C.” left out
as §2, with “myotubes.” for “myotubes. HEK293 cells normally express minimal amounts of mir-675.”, “(ddPCR). […]” for “(ddPCR).”

TRIM43 [3] = assay: ddPCR of TRIM43 in drug-treated DUX4-transfected HEK293 cells; type: cell-based, human; conditions: for TRIM43 (% decrease): vs ethanol vehicle
Protocol: as §1
Three small molecule candidates (β-estradiol, a combination of β-estradiol+medroxyprogesterone acetate (MPA), and melatonin) were tested for their ability to upregulate mir-675-5p in HEK293 cells and in human myotubes. HEK293 cells normally express minimal amounts of mir-675. HEK293 cells were treated with (1) 20 μM β-estradiol alone; (2) 10 μM or 20 μM β-estradiol+MPA; or (3) 20 μM or 40 μM melatonin. 24 hours after treatment, mir-675-5p expression was measured by Droplet Digital PCR (ddPCR).
In FIG. 28, β-estradiol, medroxyprogesterone acetate (MPA) and melatonin increased mir-675 expression and reduced the expression of DUX4 and DUX4-induced biomarker TRIM43 in HEK293 cells. Droplet Digital PCR (ddPCR) was carried out to measure mir-675-5p, DUX4 and TRIM43 levels. HEK293 cells were transfected with DUX4 and were treated with two drugs individually (i.e., β-estradiol and melatonin) or with a combination of β-estradiol and MPA at 10, 20 or 40 μM at the time of transfection. The effects of these drugs were evaluated by comparison to ethanol (vehicle)-treated cells. Numbers correspond to n=3 independent experiments (ANOVA, P<0.0001). The quantification (percent change) of gene expression from HEK293 cells treated with β-estradiol, β-estradiol+MPA, or melatonin was measured using droplet digital PCR (ddPCR) and is reported in Table 3 set out below. Anti-mir-675 is an antagomiR targeting the mature sequence of mir-675-5p, inhibiting its function as inhibitor of DUX4 gene expression. CMV.DUX4-mir-675Res is an expression plasmid encoding a DUX4 mutant sequence. […]

mir-675-5p [4] = assay: ddPCR of mir-675-5p in drug-treated FSHD myotubes; type: cell-based, human; conditions: 20 μM
Excerpt: (§3) Primary Cell Culture. 15A, 17A sand 18A FSHD human myoblasts and 15V control human myoblasts were provided by the UMMS Wellstone Center for FSHD and have been previously characterized [Jones et al., Hum. Mol. Genet. 21: 4419-4430 (2012)]. Previously immortalized 15A cell lines have a single 4qA permissive allele. […] 15V cell lines have two 4qB non-permissive alleles. Cells were propagated by feeding them every two days with new LHCN medium [4:1 DMEM:Medium 199 (Gibco) supplemented with 15% characterized FBS (Corning), 0.02 M HEPES (Thermo Fisher), 0.03 μg/mL ZnSO4 (Honeywell Fluka), 1.4 μg/mL Vitamin B12 (Sigma-Aldrich), 0.055 μg/mL dexamethasone (Sigma-Aldrich), 1% antibiotics/antimycotics (Gibco), 2.5 ng/mL hepatocyte growth factor (Millipore) and 10 ng/mL basic fibroblast growth factor (Millipore)]. For differentiation, myoblasts were switched to a differentiation medium [4:1 DMEM: Medium 199 (Gibco) supplemented with 15% KnockOut Serum Replacement (ThermoFisher Scientific), 2 mM L-glutamine (Gibco), 1% antibiotics/antimycotics (Gibco), 1 mM sodium pyruvate (Gibco) and 20 mM HEPES (ThermoFisher Scientific)] when cells were at >90% confluency. Before adding differentiation medium, cells were washed with PBS (Gibco). Cells were seeded with new differentiation medium every three days for up to 7 days. To detach cells, TrypLE™ Express, phenol red (ThermoFisher Scientific) was used.
as §1
(§4) Next, the effects of the three treatment regimens were tested on the expression of endogenous mir-675-5p, DUX4 and TRIM43 in 15A, 17A and 18A FSHD differentiated muscle cell lines (myotubes) (FIG. 29 and Table 4). […] Mol. Genet. 21: 4419-30 (2012)]. In FIG. 29, β-estradiol, medroxyprogesterone acetate (MPA) and melatonin increased mir-675 expression and reduced the expression of DUX4 and the DUX4-induced biomarker TRIM43 in three FSHD affected myotube lines. Droplet digital PCR (ddPCR) was used to measure mir-675-5p, DUX4 and TRIM43 levels in 15A (A), 17A (B) and 18A (C) FSHD affected myotubes five days after differentiation. […]

DUX4 [5] = assay: ddPCR of DUX4 in drug-treated FSHD myotubes; type: cell-based, human; conditions: for DUX4 (% decrease): 20 μM
Excerpt: as §3, §1, §4

TRIM43 [6] = assay: ddPCR of TRIM43 in drug-treated FSHD myotubes; type: cell-based, human; conditions: for TRIM43 (% decrease): 20 μM; for reduction of TRIM43 expression: 18A FSHD myotubes, 40 μM, added 4th day, collected 5th day of differentiation
Excerpt: as §3, §1, §4

ZSCAN4 = assay: ddPCR of ZSCAN4 in drug-treated 18A FSHD myotubes; type: cell-based, human; conditions: 40 μM, added 4th day, collected 5th day of differentiation
Protocol: 18A FSHD affected muscles cell lines were treated with increasing concentrations of Pyrazinamide or Sorafenib at the 4th day of differentiation into myotubes. Cells were collected at the 5th day of differentiation. RNA was extracted and ddPCR gene expression analysis on DUX4, TRIM43 and ZSCAN4 was carried out. As a result, 40 μM of Pyrazinamide reduced TRIM43 and ZSCAN4 expression by 35±7% (ANOVA, P=0.0378, N=3 independent experiments) and 42±6% (ANOVA, P=0.0043, N=3 independent experiments), respectively (FIG. 35). Sorafenib reduced DUX4, TRIM43 and ZSCAN4 expression in a dose dependent manner, where it reached maximum inhibition when used at a concentration of 40 μM. At the latter, Sorafenib reduced DUX4, TRIM43 and ZSCAN4 expression by 40±10% (ANOVA, P=0.0486, N=3 independent experiments), 70±4% (ANOVA, P=0.0003, N=3 independent experiments) and 68±3% (ANOVA, P=0.0001, N=3 independent experiments), respectively (FIG. 35).

mir-675 = conditions: published gene expression studies; cited from earlier work

SMILES	mir-675-5p (% increase) (mir-675-5p [1]; 20 μM) [%]	DUX4 (% decrease) (DUX4 [2]; 20 μM)	TRIM43 (% decrease) (TRIM43 [3]; 20 μM, HEK293)	mir-675-5p (% increase) (mir-675-5p [4]; 15A 5DD myotubes, N = 6)	mir-675-5p (% increase) (mir-675-5p [4]; 17A 5DD myotubes, N = 3)	mir-675-5p (% increase) (mir-675-5p [4]; 18A 5DD myotubes, N = 3)	DUX4 (% decrease) (DUX4 [5]; 15A 5DD myotubes, N = 6)	DUX4 (% decrease) (DUX4 [5]; 17A 5DD myotubes, N = 3)	DUX4 (% decrease) (DUX4 [5]; 18A 5DD myotubes, N = 3)	TRIM43 (% decrease) (TRIM43 [6]; 15A 5DD myotubes, N = 6)	TRIM43 (% decrease) (TRIM43 [6]; 17A 5DD myotubes, N = 3)	TRIM43 (% decrease) (TRIM43 [6]; 18A 5DD myotubes, N = 3)	reduction of TRIM43 expression (TRIM43 [6]) [%]	reduction of ZSCAN4 expression (ZSCAN4) [%]	mir-675 expression (mir-675)	also measured
C[C@]12CC[C@@H]3c4ccc(O)cc4CC[C@H]3[C@@H]1CC[C@@H]2O [β-estradiol]	92 ± 34	significant decrease	significant decrease	47 ± 11 | *, %	38 ± 09 | *, %	382 ± 44 | ***, %	70 ± 38 | *, %	63 ± 19 | *, %	49 ± 19 | *, %	46 ± 40 | NS, %	31 ± 12 | *, %	57 ± 07 | ** , %	–	–	–	mir-675-5p (% increase) (mir-675-5p [1]; 10 μM): 22 ± 06%
CNC(=O)c1cc(Oc2ccc(NC(=O)Nc3ccc(Cl)c(C(F)(F)F)c3)cc2)ccn1 [Sorafenib, 4-[4-[[4-chloro-3-(trifluoromethyl)phenyl]carbamoylamino]phenoxy]-N-methylpyridine-2-carboxamide]	–	–	–	–	–	–	–	–	–	–	–	–	70±4	68±3	upregulated mir-675 expression	reduction of DUX4 expression (DUX4 [5]; 18A FSHD myotubes, 40 μM, added 4th day, collected 5th day of differentiation): 40±10%
COc1ccc2[nH]cc(CCNC(C)=O)c2c1 [Melatonin, melatonin]	229 ± 53	90 ± 01%	52 ± 01%	44 ± 16 | *, %	48 ± 09 | **, %	154 ± 59 | *, %	88 ± 40 | **, %	55 ± 09 | *, %	38 ± 17 | *, %	75 ± 45 | *, %	30 ± 12 | *, %	70 + 15 | ***, %	–	–	mir-675 was induced	mir-675-5p (% increase) (mir-675-5p [1]; 40 μM): 246 ± 53%; DUX4 (% decrease) (DUX4 [2]; 40 μM): 93 ± 01%; +anti-mir-675 (300 nM) TRIM43 (% increase) (TRIM43 [3]; 20 μM, HEK293, co-transfected anti-mir-675 300 nM): 21 ± 01%; TRIM43 (% decrease) (TRIM43 [3]; 40 μM, HEK293): 58 ± 01%; +CMV.DUX4-mir-675Res TRIM43 (% decrease) (TRIM43 [3]; 40 μM, HEK293 transfected with CMV.DUX4-mir-675Res): 0.1 ± 16%
NC(=O)c1cnccn1 [Pyrazinamide, pyrazine-2-carboxamide]	–	–	–	–	–	–	–	–	–	–	–	–	35±7	42±6	upregulated mir-675 expression	–
